# Data: patent publication US12351564B2, “NLRP3 modulators” (Zomagen Biosciences Ltd, priority 2019, dated 2025)
# pIC50: −log10 of the molar value.
# System: IL-1b
# Test: Mouse BMDM IL-1b Assay
# Format: cell-based
# Conditions: Macrophage; C57BL6 bone marrow derived macrophages; 200 ng/mL Ultrapure LPS-B5 3 hours, compound 30 minutes, 5 mM ATP 45 minutes; mouse IL-1b ELISA of supernatant
# Description: Example 8: Mouse BMDM IL-1b Assay
# Mouse bone marrow cells from C57BL6 tibia and femur were culture in complete Isocov's Media supplemented with 20 ng/mL MCSF (BMDM media) at a density of 50 million cells/15 cm Petri dish. Fresh media was changed every 3 days, and bone marrow derived macrophages were collected, washed, and counted on day 7. Cells were seeded into 96 well plates at a density of 5×10^4 cells per well in 100 uL of BMDM media and cultured overnight. The cells were stimulated at 37° C. with 200 ng/mL Ultrapure LPS-B5 for 3 hours before pre-diluted compounds were added. 30 minutes after compound addition, 5 mM ATP was added for the secondary stimulation for 45 minutes. After stimulation, the plates were briefly spun down, and 50 uL of supernatant was harvested from each well. ELISA for mouse IL-1b was performed with 1:10 and 1:100 diluted supernatant using pre-coated kits. IL-1b concentrations were calculated based on pre-titrated standards, and compound inhibition IC50 is generated using the Levenberg Marquardt damped lease-square method.
row,Structure (SMILES),pIC50
1,"CC1(O)c2cc(S(=O)(=O)NC(=O)Nc3c4c(cc5c3CCC5)CCC4)oc2C2CCC1C2 (stereo not shown) [Compound 6, N-((1,2,3,5,6,7-hexahydro-s-indacen-4-yl)carbamoyl)-4-hydroxy-4-methyl-5,6,7,8-tetrahydro-4H-5,8-methanocyclohepta[b]furan-2-sulfonamide]",> 7.00
2,"O=C(Nc1c2c(cc3c1CCC3)CCC2)NS(=O)(=O)c1cc2c(o1)C1CCC(C1)C2=O (stereo not shown) [Compound 7, N-((1,2,3,5,6,7-hexahydro-s-indacen-4-yl)carbamoyl)-4-oxo-5,6,7,8-tetrahydro-4H-5,8-methanocyclohepta[b]furan-2-sulfonamide]",> 7.00
3,"O=C(Nc1c2c(cc3c1CCC3)CCC2)NS(=O)(=O)c1cc2c(o1)C1CCC(C1)C2O (stereo not shown) [Compound 9, N-((1,2,3,5,6,7-hexahydro-s-indacen-4-yl)carbamoyl)-4-hydroxy-5,6,7,8-tetrahydro-4H-5,8-methanocyclohepta[b]furan-2-sulfonamide]",> 7.00
4,"O=C(Nc1c2c(cc3c1CCC3)CCC2)NS(=O)(=O)c1cc2c(o1)C1CCC(C1)C2=NO (stereo not shown) [Compound 11, N-((1,2,3,5,6,7-hexahydro-s-indacen-4-yl)carbamoyl)-4-(hydroxyimino)-5,6,7,8-tetrahydro-4H-5,8-methanocyclohepta[b]furan-2-sulfonamide]",> 7.00
5,"CC(C)c1cccc(C(C)C)c1CC(=O)NS(=O)(=O)c1cc2c(o1)C1CCC(C1)C2=O (stereo not shown) [Compound 14, 2-(2,6-diisopropylphenyl)-N-((4-oxo-5,6,7,8-tetrahydro-4H-5,8-methanocyclohepta[b]furan-2-yl)sulfonyl)acetamide]",5.00 to 6.00
6,"CC(C)c1cccc(C(C)C)c1CC(=O)NS(=O)(=O)c1cc2c(o1)C1CCC(C1)C2O (stereo not shown) [Compound 15, 2-(2,6-diisopropylphenyl)-N-((4-hydroxy-5,6,7,8-tetrahydro-4H-5,8-methanocyclohepta[b]furan-2-yl)sulfonyl)acetamide]",5.00 to 6.00
7,"CC(C)c1cccc(C(C)C)c1CC(=O)NS(=O)(=O)c1cc2c(o1)C1CCC(C1)C2(C)O (stereo not shown) [Compound 16, 2-(2,6-diisopropylphenyl)-N-((4-hydroxy-4-methyl-5,6,7,8-tetrahydro-4H-5,8-methanocyclohepta[b]furan-2-yl)sulfonyl)acetamide]",6.00 to 7.00
8,"O=C(Nc1c2c(c(Br)c3c1CCC3)CCC2)NS(=O)(=O)c1cc2c(o1)C1CCC(C1)C2O (stereo not shown) [Compound 17, N-((8-bromo-1,2,3,5,6,7-hexahydro-s-indacen-4-yl)carbamoyl)-4-hydroxy-5,6,7,8-tetrahydro-4H-5,8-methanocyclohepta[b]furan-2-sulfonamide]",6.00 to 7.00
9,"CC1(O)c2cc(S(=O)(=O)NC(=O)Nc3c4c(c(Br)c5c3CCC5)CCC4)oc2C2CCC1C2 (stereo not shown) [Compound 18, N-((8-bromo-1,2,3,5,6,7-hexahydro-s-indacen-4-yl)carbamoyl)-4-hydroxy-4-methyl-5,6,7,8-tetrahydro-4H-5,8-methanocyclohepta[b]furan-2-sulfonamide]",> 7.00
10,"O=C(Nc1c2c(c(Cl)c3c1CCC3)CCC2)NS(=O)(=O)c1cc2c(o1)C1CCC(C1)C2O (stereo not shown) [Compound 19, N-((8-chloro-1,2,3,5,6,7-hexahydro-s-indacen-4-yl)carbamoyl)-4-hydroxy-5,6,7,8-tetrahydro-4H-5,8-methanocyclohepta[b]furan-2-sulfonamide]",> 7.00
11,"CC1(O)c2cc(S(=O)(=O)NC(=O)Nc3c4c(c(Cl)c5c3CCC5)CCC4)oc2C2CCC1C2 (stereo not shown) [Compound 20, N-((8-chloro-1,2,3,5,6,7-hexahydro-s-indacen-4-yl)carbamoyl)-4-hydroxy-4-methyl-5,6,7,8-tetrahydro-4H-5,8-methanocyclohepta[b]furan-2-sulfonamide]",> 7.00
12,"CC1(O)c2cc(S(=O)(=O)NC(=O)Nc3c4c(cc5c3CCC5)CCC4)oc2C2CCC1CC2 (stereo not shown) [Compound 21, N-((1,2,3,5,6,7-hexahydro-s-indacen-4-yl)carbamoyl)-4-hydroxy-4-methyl-5,6,7,8-tetrahydro-4H-5,8-ethanocyclohepta[b]furan-2-sulfonamide]",> 7.00
13,"O=C(Nc1c2c(cc3c1CCC3)CCC2)NS(=O)(=O)c1cc2c(o1)C1CCC(CC1)C2O (stereo not shown) [Compound 22, N-((1,2,3,5,6,7-hexahydro-s-indacen-4-yl)carbamoyl)-4-hydroxy-5,6,7,8-tetrahydro-4H-5,8-ethanocyclohepta[b]furan-2-sulfonamide]",> 7.00
14,"O=C(Nc1c2c(cc3c1CCC3)CCC2)NS(=O)(=O)c1cc2c(o1)C1CCC(CC1)C2=O [Compound 23, N-((1,2,3,5,6,7-hexahydro-s-indacen-4-yl)carbamoyl)-4-oxo-5,6,7,8-tetrahydro-4H-5,8-ethanocyclohepta[b]furan-2-sulfonamide]",> 7.00
15,"O=C(Nc1c2c(cc3c1CCC3)CCC2)NS(=O)(=O)c1cc2c(o1)C1CCC(CC1)C2=NO [Compound 24, N-((1,2,3,5,6,7-hexahydro-s-indacen-4-yl)carbamoyl)-4-(hydroxyimino)-5,6,7,8-tetrahydro-4H-5,8-ethanocyclohepta[b]furan-2-sulfonamide]",> 7.00
16,"CC(C)c1ccc(Cl)c(C(C)C)c1NC(=O)NS(=O)(=O)c1cc2c(o1)C1CCC(C1)C2O (stereo not shown) [Compound 25, N-((3-chloro-2,6-diisopropylphenyl)carbamoyl)-4-hydroxy-5,6,7,8-tetrahydro-4H-5,8-methanocyclohepta[b]furan-2-sulfonamide]",6.00 to 7.00
17,"CC(C)c1ccc(Cl)c(C(C)C)c1NC(=O)NS(=O)(=O)c1cc2c(o1)C1CCC(C1)C2(C)O (stereo not shown) [Compound 26, N-((3-chloro-2,6-diisopropylphenyl)carbamoyl)-4-hydroxy-4-methyl-5,6,7,8-tetrahydro-4H-5,8-methanocyclohepta[b]furan-2-sulfonamide]",6.00 to 7.00
18,"CC(C)c1cccc(C(C)C)c1NC(=O)NS(=O)(=O)c1cc2c(o1)C1CCC(C1)C2(C)O (stereo not shown) [Compound 27, N((2,6-diisopropylphenyl)carbamoyl)-4-hydroxy-4-methyl-5,6,7,8-tetrahydro-4H-5,8-methanocyclohepta[b]furan-2-sulfonamide]",> 7.00
19,"CC(C)c1cc(F)cc(C(C)C)c1NC(=O)NS(=O)(=O)c1cc2c(o1)C1CCC(C1)C2(C)O (stereo not shown) [Compound 28, N-((4-fluoro-2,6-diisopropylphenyl)carbamoyl)-4-hydroxy-4-methyl-5,6,7,8-tetrahydro-4H-5,8-methanocyclohepta[b]furan-2-sulfonamide]",6.00 to 7.00
20,"CC(C)c1cc(Cl)cc(C(C)C)c1NC(=O)NS(=O)(=O)c1cc2c(o1)C1CCC(C1)C2(C)O (stereo not shown) [Compound 29, N-((4-chloro-2,6-diisopropylphenyl)carbamoyl)-4-hydroxy-4-methyl-5,6,7,8-tetrahydro-4H-5,8-methanocyclohepta[b]furan-2-sulfonamide]",6.00 to 7.00
21,"CC1(O)c2cc(S(=O)(=O)NC(=O)Nc3c4c(c(F)c5c3CCC5)CCC4)oc2C2CCC1C2 (stereo not shown) [Compound 30, N-((8-fluoro-1,2,3,5,6,7-hexahydro-s-indacen-4-yl)carbamoyl)-4-hydroxy-4-methyl-5,6,7,8-tetrahydro-4H-5,8-methanocyclohepta[b]furan-2-sulfonamide]",> 7.00
22,"O=C(Nc1c2c(c(F)c3c1CCC3)CCC2)NS(=O)(=O)c1cc2c(o1)C1CCC(C1)C2O (stereo not shown) [Compound 31, N-((8-fluoro-1,2,3,5,6,7-hexahydro-s-indacen-4-yl)carbamoyl)-4-hydroxy-5,6,7,8-tetrahydro-4H-5,8-methanocyclohepta[b]furan-2-sulfonamide]",> 7.00
23,"O=C(Nc1c2c(cc3c1CCC3)CCC2)NS(=O)(=O)c1ccc2c(c1)C(=O)C1CCC2CC1 [Compound 32, N-((1,2,3,5,6,7-hexahydro-s-indacen-4-yl)carbamoyl)-9-oxo-6,7,8,9-tetrahydro-5H-5,8-ethanobenzo[7]annulene-2-sulfonamide]",> 7.00
24,"O=C(Nc1c2c(cc3c1CCC3)CCC2)NS(=O)(=O)c1ccc2c(c1)C(O)C1CCC2CC1 (stereo not shown) [Compound 33, N-((1,2,3,5,6,7-hexahydro-s-indacen-4-yl)carbamoyl)-9-hydroxy-6,7,8,9-tetrahydro-5H-5,8-ethanobenzo[7]annulene-2-sulfonamide]",6.00 to 7.00
25,"CC1(O)c2cc(S(=O)(=O)NC(=O)Nc3c4c(cc5c3CCC5)CCC4)ccc2C2CCC1CC2 (stereo not shown) [Compound 34, N-((1,2,3,5,6,7-hexahydro-s-indacen-4-yl)carbamoyl)-9-hydroxy-9-methyl-6,7,8,9-tetrahydro-5H-5,8-ethanobenzo[7]annulene-2-sulfonamide]",6.00 to 7.00
26,"O=C(Nc1c2c(cc3c1CCC3)CCC2)NS(=O)(=O)c1ccc2c(c1)/C(=N\O)C1CCC2CC1 [Compound 35, (Z)-N-((1,2,3,5,6,7-hexahydro-s-indacen-4-yl)carbamoyl)-9-(hydroxyimino)-6,7,8,9-tetrahydro-5H-5,8-ethanobenzo[7]annulene-2-sulfonamide]",6.00 to 7.00
27,"CC(C)c1ccc(F)c(C(C)C)c1NC(=O)NS(=O)(=O)c1cc2c(o1)C1CCC(C1)C2(C)O (stereo not shown) [Compound 36, N-((3-fluoro-2,6-diisopropylphenyl)carbamoyl)-4-hydroxy-4-methyl-5,6,7,8-tetrahydro-4H-5,8-methanocyclohepta[b]furan-2-sulfonamide]",> 7.00
28,"CC(C)c1ccc(F)c(C(C)C)c1NC(=O)NS(=O)(=O)c1cc2c(o1)C1CCC(C1)C2O (stereo not shown) [Compound 37, N-((3-fluoro-2,6-diisopropylphenyl)carbamoyl)-4-hydroxy-5,6,7,8-tetrahydro-4H-5,8-methanocyclohepta[b]furan-2-sulfonamide]",6.00 to 7.00
